# Legend:
# GALAP (Galium aparine) [1] = assay: Preemergence herbicidal evaluation; format: in vivo; conditions: preemergence, rated 4-5 weeks after treatment
# Summary of the method: (§1)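 Visual 0-9 rating versus untreated control, taken four to five weeks post-treatment, scoring stand, vigor, malformation, size, chlorosis and overall appearance. Compound applied as aqueous acetone spray to freshly seeded soil cups, then kept under standard greenhouse care.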
# [2] = system: IPOHE (Ipomoea hederacea); assay: Postemergence herbicidal evaluation; format: in vivo, (L.) Jacq.
# Summary of the method: (§2)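 Visual 0–9 injury scores versus control plants, covering stand, vigour, malformation, size, chlorosis and general appearance, taken four to five weeks post-spray and averaged over replicate tests. Plants were sprayed at roughly two weeks old and held on greenhouse benches.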
# GALAP (Galium aparine) [3] = assay: Postemergence herbicidal evaluation; format: in vivo
# Summary of the method: as §2
# [4] = system: TRZAWR (Wheat, Winter, cv Riband); assay: Postemergence herbicidal evaluation; format: in vivo, Triticum aestivum
# Summary of the method: as §2
# ZEAMX (Corn, Field) = assay: Preemergence herbicidal evaluation; format: in vivo, Zea mays, L.; conditions: preemergence, rated 4-5 weeks after treatment
# SETVI (Setaria viridis) [5] = assay: Postemergence herbicidal evaluation; format: in vivo, (L.) Beau
# Summary of the method: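 Seedlings about two weeks old were sprayed with compound in 50/50 acetone/water plus 0.5% TWEEN 20, at the equivalent of about 0.0040 to 1.000 kg/ha. Plants were kept in a greenhouse and visually rated 0-9 against a control four to five weeks after treatment. Repeat tests were averaged.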
# [6] = system: CYPSE (Cyperus serotinus); assay: Flooded paddy, preemergence weed control; format: in vivo, Rottb.; conditions: rated 3-4 weeks after treatment, 0-9 rating scale
# Summary of the method: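 Herbicidal effect was scored visually on a 0–9 scale against an untreated control 3–4 weeks after treatment. Compounds were applied preemergence as 50/50 v/v aqueous/acetone mixtures into flood water (1.5–3 cm deep over silt loam), at roughly 0.0080 to 0.1250 kg/ha active ingredient.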
# [7] = system: ABUTH (Abutilon theophrasti); assay: Postemergence herbicidal evaluation; format: in vivo, Medic.
# Summary of the method: as §2
# [8] = system: AMBEL (Ambrosia artemisifolia); assay: Preemergence herbicidal evaluation; format: in vivo, L.; conditions: preemergence, rated 4-5 weeks after treatment
# Summary of the method: as §1
# [9] = system: CASOB (Cassia obtusifolia); assay: Preemergence herbicidal evaluation; format: in vivo, L.; conditions: preemergence, rated 4-5 weeks after treatment
# Summary of the method: as §1
# [10] = system: CHEAL (Chenopodium album); assay: Preemergence herbicidal evaluation; format: in vivo, L.; conditions: preemergence, rated 4-5 weeks after treatment
# Summary of the method: as §1
# [11] = system: ABUTH (Abutilon theophrasti); assay: Preemergence herbicidal evaluation; format: in vivo, Medic.; conditions: preemergence, rated 4-5 weeks after treatment
# ORYSAT (Rice, Tebonnet) = assay: Flooded paddy, post-transplant rice tolerance; format: in vivo, Oryza sativa, (L.) Tebonnet; conditions: flooded paddy, post-transplant rice, rated 3-4 weeks after treatment, 0-9 rating scale
# Summary of the method: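 Visual 0–9 injury rating against a control, covering stand, vigor, malformation, size, chlorosis and overall appearance. Treatment was post-transplant onto flooded containers (water 1.5–3 cm deep, silt loam) holding two ten-day-old cv. Tebonnet seedlings, maintained on greenhouse benches.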
# SETVI (Setaria viridis) [12] = assay: Preemergence herbicidal evaluation; format: in vivo, (L.) Beau; conditions: preemergence, rated 4-5 weeks after treatment
# Summary of the method: as §1
# [13] = system: ECHCG (Echinochloa crus-galli); assay: Preemergence herbicidal evaluation; format: in vivo, (L.) Beau; conditions: preemergence, rated 4-5 weeks after treatment
# Summary of the method: as §1
# [14] = system: GLXMAW (Soybean, Williams); assay: Postemergence herbicidal evaluation; format: in vivo, Glycine max, (L.) Merr. cv Williams
# Summary of the method: as §2
# [15] = system: MOOVA (Monochoria vaginalis); assay: Flooded paddy, preemergence weed control; format: in vivo, Presl.; conditions: rated 3-4 weeks after treatment, 0-9 rating scale
# Summary of the method: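 Seeds or propagating organs were sown in the top 0.5 cm of silt loam soil, flooded, and the water kept 1.5 to 3 cm above the soil surface throughout. Plants were grown in the greenhouse and rated visually on a 0-9 scale against a control.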
structure (smiles),measurement,setting,value
"Cn1c(C(F)(F)F)cc(=O)n(-c2ccc3snc(C4OCC(C)(C)CO4)c3c2)c1=O [Compound 36, 3-[3(5,5-dimethyl-m-dioxan-2-yl)-1,2-benzisothiazol-5-yl]-1-methyl-6-(trifluoromethyl)uracil]",GALAP preemergence herbicidal rating,GALAP (Galium aparine) [1]; Rate 0.0620 kg/ha,5.0
same,GALAP preemergence herbicidal rating,GALAP (Galium aparine) [1]; Rate 0.1250 kg/ha,9.0
same,GALAP preemergence herbicidal rating,GALAP (Galium aparine) [1]; Rate 0.2500 kg/ha,9.0
same,"Postemergence herbicidal rating, IPOHE",[2]; rate 0.0320 kg/ha,9.0
same,"Postemergence herbicidal rating, IPOHE",[2]; rate 0.0620 kg/ha,9.0
same,"Postemergence herbicidal rating, GALAP",GALAP (Galium aparine) [3]; rate 0.0320 kg/ha,4.0
same,"Postemergence herbicidal rating, GALAP",GALAP (Galium aparine) [3]; rate 0.0620 kg/ha,5.0
same,"Postemergence herbicidal rating, TRZAWR",[4]; rate 0.0320 kg/ha,4.0
same,"Postemergence herbicidal rating, TRZAWR",[4]; rate 0.0620 kg/ha,4.5
same,ZEAMX preemergence herbicidal rating,"ZEAMX (Corn, Field); Rate 0.0620 kg/ha",8.0
same,ZEAMX preemergence herbicidal rating,"ZEAMX (Corn, Field); Rate 0.1250 kg/ha",8.0
same,ZEAMX preemergence herbicidal rating,"ZEAMX (Corn, Field); Rate 0.2500 kg/ha",9.0
same,"Postemergence herbicidal rating, SETVI",SETVI (Setaria viridis) [5]; rate 0.0320 kg/ha,4.0
same,"Postemergence herbicidal rating, SETVI",SETVI (Setaria viridis) [5]; rate 0.0620 kg/ha,9.0
same,"herbicidal rating, CYPSE",[6]; rate 0.0320 kg/ha,9.0
same,"herbicidal rating, CYPSE",[6]; rate 0.1250 kg/ha,9.0
same,"Postemergence herbicidal rating, ABUTH",[7]; rate 0.0320 kg/ha,9.0
same,"Postemergence herbicidal rating, ABUTH",[7]; rate 0.0620 kg/ha,9.0
same,AMBEL preemergence herbicidal rating,[8]; Rate 0.0620 kg/ha,9.0
same,AMBEL preemergence herbicidal rating,[8]; Rate 0.1250 kg/ha,9.0
same,AMBEL preemergence herbicidal rating,[8]; Rate 0.2500 kg/ha,9.0
same,CASOB preemergence herbicidal rating,[9]; Rate 0.0620 kg/ha,5.0
same,CASOB preemergence herbicidal rating,[9]; Rate 0.1250 kg/ha,9.0
same,CASOB preemergence herbicidal rating,[9]; Rate 0.2500 kg/ha,9.0
same,CHEAL preemergence herbicidal rating,[10]; Rate 0.0620 kg/ha,9.0
same,CHEAL preemergence herbicidal rating,[10]; Rate 0.1250 kg/ha,9.0
same,CHEAL preemergence herbicidal rating,[10]; Rate 0.2500 kg/ha,9.0
same,ABUTH preemergence herbicidal rating,[11]; Rate 0.0620 kg/ha,9.0
same,ABUTH preemergence herbicidal rating,[11]; Rate 0.1250 kg/ha,9.0
same,ABUTH preemergence herbicidal rating,[11]; Rate 0.2500 kg/ha,9.0
same,"herbicidal rating, ORYSAT (rice tolerance)","ORYSAT (Rice, Tebonnet); rate 0.0080 kg/ha",5.0
same,"herbicidal rating, ORYSAT (rice tolerance)","ORYSAT (Rice, Tebonnet); rate 0.0320 kg/ha",7.5
same,"herbicidal rating, ORYSAT (rice tolerance)","ORYSAT (Rice, Tebonnet); rate 0.1250 kg/ha",9.0
same,SETVI preemergence herbicidal rating,SETVI (Setaria viridis) [12]; Rate 0.0620 kg/ha,9.0
same,SETVI preemergence herbicidal rating,SETVI (Setaria viridis) [12]; Rate 0.1250 kg/ha,9.0
same,SETVI preemergence herbicidal rating,SETVI (Setaria viridis) [12]; Rate 0.2500 kg/ha,9.0
same,ECHCG preemergence herbicidal rating,[13]; Rate 0.0620 kg/ha,9.0
same,ECHCG preemergence herbicidal rating,[13]; Rate 0.1250 kg/ha,9.0
same,ECHCG preemergence herbicidal rating,[13]; Rate 0.2500 kg/ha,9.0
same,"Postemergence herbicidal rating, GLXMAW",[14]; rate 0.0320 kg/ha,7.5
same,"Postemergence herbicidal rating, GLXMAW",[14]; rate 0.0620 kg/ha,9.0
same,"herbicidal rating, MOOVA",[15]; rate 0.0080 kg/ha,9.0
same,"herbicidal rating, MOOVA",[15]; rate 0.0320 kg/ha,9.0
"CC1CCOC(c2nsc3ccc(-n4c(=O)cc(C(F)(F)F)n(C)c4=O)cc23)O1 (centres unmarked) [Compound 37, 1-methyl-3-[3-(4-methyl-m-dioxan-2-yl)-1,2-benzisothiazol-5-yl]-6-(trifluoromethyl)uracil]",GALAP preemergence herbicidal rating,GALAP (Galium aparine) [1]; Rate 0.0620 kg/ha,5.0
same,GALAP preemergence herbicidal rating,GALAP (Galium aparine) [1]; Rate 0.1250 kg/ha,9.0
same,GALAP preemergence herbicidal rating,GALAP (Galium aparine) [1]; Rate 0.2500 kg/ha,9.0
same,"Postemergence herbicidal rating, IPOHE",[2]; rate 0.0320 kg/ha,9.0
same,"Postemergence herbicidal rating, IPOHE",[2]; rate 0.0620 kg/ha,9.0
same,"Postemergence herbicidal rating, GALAP",GALAP (Galium aparine) [3]; rate 0.0320 kg/ha,4.0
same,"Postemergence herbicidal rating, GALAP",GALAP (Galium aparine) [3]; rate 0.0620 kg/ha,4.0
same,"Postemergence herbicidal rating, TRZAWR",[4]; rate 0.0320 kg/ha,5.0
same,"Postemergence herbicidal rating, TRZAWR",[4]; rate 0.0620 kg/ha,7.0
same,ZEAMX preemergence herbicidal rating,"ZEAMX (Corn, Field); Rate 0.0620 kg/ha",9.0
same,ZEAMX preemergence herbicidal rating,"ZEAMX (Corn, Field); Rate 0.1250 kg/ha",9.0
same,ZEAMX preemergence herbicidal rating,"ZEAMX (Corn, Field); Rate 0.2500 kg/ha",9.0
same,"Postemergence herbicidal rating, SETVI",SETVI (Setaria viridis) [5]; rate 0.0320 kg/ha,9.0
same,"Postemergence herbicidal rating, SETVI",SETVI (Setaria viridis) [5]; rate 0.0620 kg/ha,9.0
same,"herbicidal rating, CYPSE",[6]; rate 0.0320 kg/ha,9.0
same,"herbicidal rating, CYPSE",[6]; rate 0.1250 kg/ha,9.0
same,"Postemergence herbicidal rating, ABUTH",[7]; rate 0.0320 kg/ha,9.0
same,"Postemergence herbicidal rating, ABUTH",[7]; rate 0.0620 kg/ha,9.0
same,AMBEL preemergence herbicidal rating,[8]; Rate 0.0620 kg/ha,9.0
same,AMBEL preemergence herbicidal rating,[8]; Rate 0.1250 kg/ha,9.0
same,AMBEL preemergence herbicidal rating,[8]; Rate 0.2500 kg/ha,9.0
same,CASOB preemergence herbicidal rating,[9]; Rate 0.0620 kg/ha,7.0
same,CASOB preemergence herbicidal rating,[9]; Rate 0.1250 kg/ha,8.0
same,CASOB preemergence herbicidal rating,[9]; Rate 0.2500 kg/ha,9.0
same,CHEAL preemergence herbicidal rating,[10]; Rate 0.0620 kg/ha,9.0
same,CHEAL preemergence herbicidal rating,[10]; Rate 0.1250 kg/ha,9.0
same,CHEAL preemergence herbicidal rating,[10]; Rate 0.2500 kg/ha,9.0
same,ABUTH preemergence herbicidal rating,[11]; Rate 0.0620 kg/ha,9.0
same,ABUTH preemergence herbicidal rating,[11]; Rate 0.1250 kg/ha,9.0
same,ABUTH preemergence herbicidal rating,[11]; Rate 0.2500 kg/ha,9.0
same,"herbicidal rating, ORYSAT (rice tolerance)","ORYSAT (Rice, Tebonnet); rate 0.0080 kg/ha",5.0
same,"herbicidal rating, ORYSAT (rice tolerance)","ORYSAT (Rice, Tebonnet); rate 0.0320 kg/ha",8.5
same,"herbicidal rating, ORYSAT (rice tolerance)","ORYSAT (Rice, Tebonnet); rate 0.1250 kg/ha",9.0
same,SETVI preemergence herbicidal rating,SETVI (Setaria viridis) [12]; Rate 0.0620 kg/ha,9.0
same,SETVI preemergence herbicidal rating,SETVI (Setaria viridis) [12]; Rate 0.1250 kg/ha,9.0
same,SETVI preemergence herbicidal rating,SETVI (Setaria viridis) [12]; Rate 0.2500 kg/ha,9.0
same,ECHCG preemergence herbicidal rating,[13]; Rate 0.0620 kg/ha,9.0
same,ECHCG preemergence herbicidal rating,[13]; Rate 0.1250 kg/ha,9.0
same,ECHCG preemergence herbicidal rating,[13]; Rate 0.2500 kg/ha,9.0
same,"Postemergence herbicidal rating, GLXMAW",[14]; rate 0.0320 kg/ha,9.0
same,"Postemergence herbicidal rating, GLXMAW",[14]; rate 0.0620 kg/ha,9.0
same,"herbicidal rating, MOOVA",[15]; rate 0.0080 kg/ha,3.0
same,"herbicidal rating, MOOVA",[15]; rate 0.0320 kg/ha,9.0
